# According to patent US20090018019A1, “INCREASING PATHOGEN DEFENCE IN PLANTS” (priority 2005, published 2009):
# “Also recorded” adds a separate entry of the source.
# Key:
# Type in all cases: in vivo
# genes for PR proteins = assay: DNA chip expression analysis of barley leaves after soil treatment, gene group; conditions: treated plants compared with non-treated plants
# Method: (§1) Barley seeds (of the Baroness variety) were sown in pots containing soil about 2 cm deep (1250 g of sandy loam/per pot; the soil moisture content was adjusted to 70% of the maximum water-holding capacity) and cultivated in a climatized chamber under specified light, moisture and temperature conditions (15 h white light, 70% atmospheric humidity, 23-19° C. day/night).
# (§2) 14 days after the emergence of the barley plants 10 mg of imidacloprid per plant, dissolved in 100 ml water, were applied by means of a pipette to the soil around the base of the shoot. The same volume of water without any active compound was applied to the control pots. After the soil treatment the plants were no longer watered. At various times after application (0.25; 1; 6; 8; 11; 13; 15; 16 and 17 days) the leaves were harvested, quick-frozen in liquid nitrogen and stored at −80° C. until further treatment.
# The labelled RNA probes for the DNA chip hybridization were produced according to the protocols (Expression Analysis, Technical Manual) of the Affymetrix company (Affymetrix Inc., 3380 Central Expressway, Santa Clara, Calif., USA). Whole RNA was first of all isolated from in each case 500 mg of the harvested leaves. […] The fluorescence data obtained were analyzed with the Microarray Suite 5 software from Affymetrix and the Expressionist Pro software from the GeneData company. […]
# [1] = test system: Contig11773_at REGULATOR OF PAT[…]; assay: DNA chip expression analysis of barley leaves after soil treatment; conditions: 10 mg per plant to soil
# Method: as §1, §2
# (§3) The labelled RNA probes for the DNA chip hybridization were produced according to the protocols (Expression Analysis, Technical Manual) of the Affymetrix company (Affymetrix Inc., 3380 Central Expressway, Santa Clara, Calif., USA). Whole RNA was first of all isolated from in each case 500 mg of the harvested leaves. 10 μg portions of whole RNA were used for the first and second strand cDNA synthesis. The cDNA was amplified with T7 polymerase and simultaneously labelled with biotin-UTP. 20 μg portions of this biotinylated cDNA were used for the hybridization of the barley genome array (Barleyl Gene Chip, Item no: 511012) from Affymetrix. This DNA microarray contains DNA sequences of 22840 genes composed of a total of 400000 EST (Expressed Sequence Tag) sequences. Then the DNA microarrays were washed in the Affymetrix Fluidics Station, stained with streptavidin/phycoerythrin (Molecular Probes, P/N S-866) and scanned with the Affymetrix Gene Chip Scanner 3000. The fluorescence data obtained were analyzed with the Microarray Suite 5 software from Affymetrix and the Expressionist Pro software from the GeneData company. After a quality check, all of the DNA chip analyses were stored in a database. Since the Affymetrix Gene Chip System is based on measuring the absolute expression values of the genes contained in the chip, the expression values of the biological replicates of treated and non-treated plants were averaged after normalization (median calculation). With the aid of the statistical ANOVA method, those genes were identified whose expression was increased in the plants treated with imidacloprid but remained relatively constant in the untreated controls. The assembly of gene groups from specific metabolic pathways, signal transduction chains or functions was carried out by a keyword search through the gene annotations supplied by Affymetrix and by linking the genes to their corresponding Gene Ontology Annotations (Gene Ontology Consortium).
# [2] = test system: Contig2212_s_at PATHOGENESIS-RELATED PROTEIN PRB1-3; assay: as above; conditions: 10 mg per plant to soil
# Method: as §1, §2, §3
# [3] = test system: Contig2550_x_at PATHOGENESIS-RELATED PROTEIN 4; assay: as above; conditions: 10 mg per plant to soil
# Method: as §1, §2, §3
# [4] = test system: Contig12046_at PATHOGENESIS RELATED PROTEIN-1; assay: as above; conditions: 10 mg per plant to soil
# Method: as §1, §2, §3
# [5] = test system: Contig2210_at PATHOGENESIS-RELATED PROTEIN 1 PRECURSOR; assay: as above; conditions: 10 mg per plant to soil
# Method: as §1, §2, §3
smiles,measurement,setting,value
O=[N+]([O-])/N=C1\NCCN1Cc1ccc(Cl)nc1 [imidacloprid],expression of genes for PR proteins,genes for PR proteins,increased expression; also recorded: powerful induction
same,Induction factor = Expression (treated)/Expression (untreated),[1]; 0.25 d,0.9
same,"Median of the raw expression data, treated",[1]; 0.25 days,175.49
same,Induction factor = Expression (treated)/Expression (untreated),[1]; 1 d,0.4
same,"Median of the raw expression data, treated",[1]; 1 day,70.99
same,Induction factor = Expression (treated)/Expression (untreated),[1]; 6 d,7.8
same,"Median of the raw expression data, treated",[1]; 6 days,1513.72
same,Induction factor = Expression (treated)/Expression (untreated),[1]; 8 d,11.0
same,"Median of the raw expression data, treated",[1]; 8 days,2102.86
same,Induction factor = Expression (treated)/Expression (untreated),[1]; 11 d,7.4
same,"Median of the raw expression data, treated",[1]; 11 days,1580.30
same,Induction factor = Expression (treated)/Expression (untreated),[1]; 13 d,3.5
same,"Median of the raw expression data, treated",[1]; 13 days,208.99
same,Induction factor = Expression (treated)/Expression (untreated),[1]; 15 d,1.9
same,"Median of the raw expression data, treated",[1]; 15 days,182.27
same,Induction factor = Expression (treated)/Expression (untreated),[1]; 16 d,3.8
same,"Median of the raw expression data, treated",[1]; 16 days,694.71
same,Induction factor = Expression (treated)/Expression (untreated),[1]; 17 d,2.3
same,"Median of the raw expression data, treated",[1]; 17 days,340.39
same,Induction factor = Expression (treated)/Expression (untreated),[2]; 0.25 d,0.9
same,"Median of the raw expression data, treated",[2]; 0.25 days,153.25
same,Induction factor = Expression (treated)/Expression (untreated),[2]; 1 d,0.9
same,"Median of the raw expression data, treated",[2]; 1 day,135.85
same,Induction factor = Expression (treated)/Expression (untreated),[2]; 6 d,9.6
same,"Median of the raw expression data, treated",[2]; 6 days,3508.08
same,Induction factor = Expression (treated)/Expression (untreated),[2]; 8 d,10.3
same,"Median of the raw expression data, treated",[2]; 8 days,3936.08
same,Induction factor = Expression (treated)/Expression (untreated),[2]; 11 d,9.0
same,"Median of the raw expression data, treated",[2]; 11 days,3866.40
same,Induction factor = Expression (treated)/Expression (untreated),[2]; 13 d,3.7
same,"Median of the raw expression data, treated",[2]; 13 days,470.29
same,Induction factor = Expression (treated)/Expression (untreated),[2]; 15 d,2.3
same,"Median of the raw expression data, treated",[2]; 15 days,378.35
same,Induction factor = Expression (treated)/Expression (untreated),[2]; 16 d,2.4
same,"Median of the raw expression data, treated",[2]; 16 days,756.91
same,Induction factor = Expression (treated)/Expression (untreated),[2]; 17 d,0.7
same,"Median of the raw expression data, treated",[2]; 17 days,376.36
same,Induction factor = Expression (treated)/Expression (untreated),[3]; 0.25 d,0.8
same,"Median of the raw expression data, treated",[3]; 0.25 days,68.63
same,Induction factor = Expression (treated)/Expression (untreated),[3]; 1 d,0.7
same,"Median of the raw expression data, treated",[3]; 1 day,54.66
same,Induction factor = Expression (treated)/Expression (untreated),[3]; 6 d,5.8
same,"Median of the raw expression data, treated",[3]; 6 days,716.14
same,Induction factor = Expression (treated)/Expression (untreated),[3]; 8 d,7.4
same,"Median of the raw expression data, treated",[3]; 8 days,1121.61
same,Induction factor = Expression (treated)/Expression (untreated),[3]; 11 d,6.1
same,"Median of the raw expression data, treated",[3]; 11 days,771.21
same,Induction factor = Expression (treated)/Expression (untreated),[3]; 13 d,3.1
same,"Median of the raw expression data, treated",[3]; 13 days,150.42
same,Induction factor = Expression (treated)/Expression (untreated),[3]; 15 d,1.4
same,"Median of the raw expression data, treated",[3]; 15 days,162.60
same,Induction factor = Expression (treated)/Expression (untreated),[3]; 16 d,2.7
same,"Median of the raw expression data, treated",[3]; 16 days,389.62
same,Induction factor = Expression (treated)/Expression (untreated),[3]; 17 d,0.9
same,"Median of the raw expression data, treated",[3]; 17 days,174.42
same,Induction factor = Expression (treated)/Expression (untreated),[4]; 0.25 d,0.9
same,"Median of the raw expression data, treated",[4]; 0.25 days,76.89
same,Induction factor = Expression (treated)/Expression (untreated),[4]; 1 d,0.8
same,"Median of the raw expression data, treated",[4]; 1 day,46.22
same,Induction factor = Expression (treated)/Expression (untreated),[4]; 6 d,6.5
same,"Median of the raw expression data, treated",[4]; 6 days,786.00
same,Induction factor = Expression (treated)/Expression (untreated),[4]; 8 d,7.2
same,"Median of the raw expression data, treated",[4]; 8 days,1336.13
same,Induction factor = Expression (treated)/Expression (untreated),[4]; 11 d,7.8
same,"Median of the raw expression data, treated",[4]; 11 days,792.96
same,Induction factor = Expression (treated)/Expression (untreated),[4]; 13 d,2.7
same,"Median of the raw expression data, treated",[4]; 13 days,140.26
same,Induction factor = Expression (treated)/Expression (untreated),[4]; 15 d,2.5
same,"Median of the raw expression data, treated",[4]; 15 days,150.31
same,Induction factor = Expression (treated)/Expression (untreated),[4]; 16 d,2.9
same,"Median of the raw expression data, treated",[4]; 16 days,622.77
same,Induction factor = Expression (treated)/Expression (untreated),[4]; 17 d,0.9
same,"Median of the raw expression data, treated",[4]; 17 days,220.80
same,Induction factor = Expression (treated)/Expression (untreated),[5]; 0.25 d,0.6
same,"Median of the raw expression data, treated",[5]; 0.25 days,143.08
same,Induction factor = Expression (treated)/Expression (untreated),[5]; 1 d,0.4
same,"Median of the raw expression data, treated",[5]; 1 day,78.12
same,Induction factor = Expression (treated)/Expression (untreated),[5]; 6 d,7.9
same,"Median of the raw expression data, treated",[5]; 6 days,6881.20
same,Induction factor = Expression (treated)/Expression (untreated),[5]; 8 d,8.8
same,"Median of the raw expression data, treated",[5]; 8 days,8961.17
same,Induction factor = Expression (treated)/Expression (untreated),[5]; 11 d,5.4
same,"Median of the raw expression data, treated",[5]; 11 days,7946.25
same,Induction factor = Expression (treated)/Expression (untreated),[5]; 13 d,3.6
same,"Median of the raw expression data, treated",[5]; 13 days,1553.93
same,Induction factor = Expression (treated)/Expression (untreated),[5]; 15 d,2.8
same,"Median of the raw expression data, treated",[5]; 15 days,1970.04
same,Induction factor = Expression (treated)/Expression (untreated),[5]; 16 d,2.4
same,"Median of the raw expression data, treated",[5]; 16 days,2013.49
same,Induction factor = Expression (treated)/Expression (untreated),[5]; 17 d,0.7
same,"Median of the raw expression data, treated",[5]; 17 days,1121.55
